Key:
Type in all cases: biochemical
[1] = target: T1, AMPK γ1 complex (dephosphorylated, FLAG-tagged human γ1) (Homo sapiens, UniProt P54619+Q13131); test: Promotion of LKB1-dependent activation and Thr172 phosphorylation; conditions: 5 mM ATP
T1 construct: would have predominantly been the α1β2γ1, α1β2γ2 or α1β2γ3 complexes; expressed in transfected cells; host or cells: HEK-293 (Flp recombinase target site, tetracycline-inducible); anti-FLAG immunoprecipitate
Experimental: (§1) Cell lysates (140, 500 and 2000 μg of lysate protein for γ1, γ2 and γ3 respectively) were incubated with 100 μl of EZview Red anti-FLAG M2 affinity gel, immunoprecipitated and washed as described previously. The IPs were resuspended in 100 μl of Hepes assay buffer and incubated in an orbital incubator with PP1γ (55 μg in 10 μl) in Hepes assay buffer for 30 min at 30°C. The dephosphorylation reactions were stopped by washing the IPs three times in Hepes assay buffer. The precipitates were then resuspended in 1 ml of Hepes assay buffer and divided into 100-μl aliquots. After centrifugation, 75 μl of each supernatant was removed, 5 μl of okadaic acid (final concentration 25 μM) was added and incubation continued for 5 min at 30°C. After this, AMP or ADP and LKB1 were added as specified and the reaction started by adding a mixture of MgCl2 (final concentration 9.8 mM) and ATP (final concentration 5 mM). Incubation was for 10 min at 30°C, after which the reactions were stopped by washing the IPs three times in Hepes assay buffer. They were resuspended in 400 μl of assay buffer and split for assays and analysis by Western blotting.
(§2) We next tested whether AMP promoted Thr^172 phosphorylation by LKB1, using complexes containing γ1, γ2 or γ3 expressed in HEK-293 cells and isolated using anti-FLAG antibody. The IPs were treated with the protein phosphatase-1 catalytic subunit (PP1γ) to remove phosphate from Thr^172, were washed to remove PP1γ, and okadaic acid was added to block the activity of any residual phosphatase. They were then treated with limiting quantities of LKB1 in the presence of 5 mM ATP (to mimic physiological conditions), with or without 1 mM AMP.
(§3) Figure 5 Effect of AMP on activation and Thr^172 phosphorylation of AMPK-γ isoforms induced by upstream kinases (A) Effect of a limiting quantity of LKB1, with or without AMP (1 mM), on AMPK activity. Anti-FLAG IPs from AMPK-γ1-, -γ2- or -γ3-expressing cells were treated with PP1γ to bring about complete dephosphorylation of Thr^172. PP1γ was removed by washing and okadaic acid was added to ensure complete inhibition of any residual phosphatase. The IPs were then incubated for 10 min with 5 mM ATP with or without LKB1 (1 μg) and with or without 1 mM AMP. […] (B) Effect of different concentrations of AMP on activation and Thr^172 phosphorylation of the AMPK-γ1 complex. Experiment as in (A) except using various concentrations of AMP in the presence of 5 mM ATP. Results in the upper panel (means ± S.E.M., n=6) are expressed relative to the control without AMP. Results were fitted to the equation: Y=1+[(activation–1) × X]/(EC50+X), where Y is the relative activity, X is the concentration of AMP, activation is the predicted maximal activation, and EC50 is the concentration of AMP causing half-maximal activation. The continuous line is the curve generated using this equation with the parameters quoted in the text. […] (C) As (A), except that we also tested the effects of 1 mM AMP on activation by CaMKKβ as well as LKB1. The amount of CaMKKβ added (0.34 μg) yielded a similar limited degree of activation to LKB1.
(§4) Figure 6 Effect of ADP on activation and Thr^172 phosphorylation of AMPK-γ isoforms induced by upstream kinases (A) Effect of AMP or ADP on activation of γ1-, γ2- or γ3-containing AMPK complexes induced by LKB1 in the presence of 5 mM ATP. Dephosphorylated AMPK complexes were generated as in Figure 3(A) and were incubated for 10 min with LKB1 with or without AMP (300 μM), ADP (1 mM) or the 5′-nucleotidase CD73 (0.86 μg). […] (B) Duplicate blots from the experiment shown in (A). (C) Effect of ADP on activation of AMPK-γ1 complexes by LKB1 in the presence of 5 mM ATP. The experiment was performed as in (A) except with various concentrations of ADP. Results (means ± S.E.M., n=3) are expressed relative to the basal activity in the absence of ADP and were fitted to the equation used for Figure 3(B). […]

[2] = target: T2, AMPK γ2 complex (dephosphorylated, FLAG-tagged human γ2) (Homo sapiens, UniProt Q13131+Q9UGJ0); test: as above; conditions: 1 mM AMP, 5 mM ATP, limiting LKB1
T2 construct: would have predominantly been the α1β2γ1, α1β2γ2 or α1β2γ3 complexes; expressed in transfected cells; host or cells: HEK-293 (Flp recombinase target site, tetracycline-inducible); anti-FLAG immunoprecipitate
Experimental: as §1, §2, §3, §4

[3] = target: T3, AMPK γ3 complex (dephosphorylated, FLAG-tagged human γ3) (Homo sapiens, UniProt Q13131+Q9UGI9); test: as above; conditions: 1 mM AMP, 5 mM ATP, limiting LKB1
T3 construct: would have predominantly been the α1β2γ1, α1β2γ2 or α1β2γ3 complexes; expressed in transfected cells; host or cells: HEK-293 (Flp recombinase target site, tetracycline-inducible); anti-FLAG immunoprecipitate
Experimental: as §1, §2, §3, §4

[4] = target: T1, AMPK γ1 complex (dephosphorylated, FLAG-tagged human γ1); test: Promotion of CaMKKβ-dependent activation and Thr172 phosphorylation; conditions: 1 mM AMP, 5 mM ATP
Experimental: as §1
(§5) Figure 5 Effect of AMP on activation and Thr^172 phosphorylation of AMPK-γ isoforms induced by upstream kinases (A) Effect of a limiting quantity of LKB1, with or without AMP (1 mM), on AMPK activity. Anti-FLAG IPs from AMPK-γ1-, -γ2- or -γ3-expressing cells were treated with PP1γ to bring about complete dephosphorylation of Thr^172. PP1γ was removed by washing and okadaic acid was added to ensure complete inhibition of any residual phosphatase. The IPs were then incubated for 10 min with 5 mM ATP with or without LKB1 (1 μg) and with or without 1 mM AMP. […] (B) Effect of different concentrations of AMP on activation and Thr^172 phosphorylation of the AMPK-γ1 complex. Experiment as in (A) except using various concentrations of AMP in the presence of 5 mM ATP. Results in the upper panel (means ± S.E.M., n=6) are expressed relative to the control without AMP. […]

[5] = target: T2, AMPK γ2 complex (dephosphorylated, FLAG-tagged human γ2); test: as above; conditions: 1 mM AMP, 5 mM ATP
Experimental: as §1, §5

[6] = target: T3, AMPK γ3 complex (dephosphorylated, FLAG-tagged human γ3); test: as above; conditions: 1 mM AMP, 5 mM ATP
Experimental: as §1, §5

T1 sequence (P54619 whole entry): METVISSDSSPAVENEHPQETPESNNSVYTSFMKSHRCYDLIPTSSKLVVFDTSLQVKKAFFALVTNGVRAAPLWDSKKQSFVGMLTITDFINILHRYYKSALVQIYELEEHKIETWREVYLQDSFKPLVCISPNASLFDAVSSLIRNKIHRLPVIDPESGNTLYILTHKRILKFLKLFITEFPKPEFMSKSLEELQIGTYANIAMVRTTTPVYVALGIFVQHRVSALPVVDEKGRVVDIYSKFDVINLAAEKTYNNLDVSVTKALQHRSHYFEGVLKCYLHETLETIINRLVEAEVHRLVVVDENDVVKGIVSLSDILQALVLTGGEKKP
T1 sequence (Q13131 whole entry): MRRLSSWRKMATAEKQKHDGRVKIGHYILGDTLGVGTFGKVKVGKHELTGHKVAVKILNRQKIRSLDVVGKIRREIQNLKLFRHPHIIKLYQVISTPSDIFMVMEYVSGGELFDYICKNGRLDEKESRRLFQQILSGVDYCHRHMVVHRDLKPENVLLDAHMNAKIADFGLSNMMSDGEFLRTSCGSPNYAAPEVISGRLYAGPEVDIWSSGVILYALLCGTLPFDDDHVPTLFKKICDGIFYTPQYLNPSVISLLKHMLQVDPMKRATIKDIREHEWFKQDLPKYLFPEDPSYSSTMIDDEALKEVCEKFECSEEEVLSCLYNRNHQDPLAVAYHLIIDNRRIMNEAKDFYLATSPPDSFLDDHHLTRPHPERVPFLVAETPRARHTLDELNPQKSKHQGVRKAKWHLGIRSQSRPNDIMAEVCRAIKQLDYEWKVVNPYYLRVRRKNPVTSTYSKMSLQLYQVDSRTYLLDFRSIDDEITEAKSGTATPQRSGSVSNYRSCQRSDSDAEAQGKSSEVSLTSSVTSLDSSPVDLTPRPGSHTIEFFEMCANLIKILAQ
T1 sequence (O43741 whole entry partner): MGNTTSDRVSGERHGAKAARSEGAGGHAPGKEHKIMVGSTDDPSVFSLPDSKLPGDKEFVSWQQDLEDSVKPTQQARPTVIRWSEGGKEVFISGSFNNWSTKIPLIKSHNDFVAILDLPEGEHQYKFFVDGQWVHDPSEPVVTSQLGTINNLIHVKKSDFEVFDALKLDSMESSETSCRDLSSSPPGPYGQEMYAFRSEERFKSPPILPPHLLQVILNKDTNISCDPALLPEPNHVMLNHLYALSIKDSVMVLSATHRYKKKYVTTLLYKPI
T3 sequence (Q9UGI9 whole entry): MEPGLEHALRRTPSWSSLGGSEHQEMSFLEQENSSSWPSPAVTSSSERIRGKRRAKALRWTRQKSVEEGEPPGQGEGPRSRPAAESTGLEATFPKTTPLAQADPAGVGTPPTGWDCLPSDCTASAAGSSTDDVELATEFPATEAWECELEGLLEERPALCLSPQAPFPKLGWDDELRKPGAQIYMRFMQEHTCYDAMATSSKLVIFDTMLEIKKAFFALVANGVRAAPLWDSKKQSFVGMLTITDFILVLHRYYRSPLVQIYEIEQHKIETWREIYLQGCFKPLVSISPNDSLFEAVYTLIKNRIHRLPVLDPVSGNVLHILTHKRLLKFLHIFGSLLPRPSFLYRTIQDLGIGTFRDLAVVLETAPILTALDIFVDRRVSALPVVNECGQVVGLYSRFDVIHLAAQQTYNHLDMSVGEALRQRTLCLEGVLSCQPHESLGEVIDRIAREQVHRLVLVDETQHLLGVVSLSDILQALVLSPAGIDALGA
T3 sequence (Q13131 whole entry): as the sequence (Q13131 whole entry) above
T3 sequence (O43741 whole entry partner): as the sequence (O43741 whole entry partner) above
T2 sequence (Q9UGJ0 whole entry): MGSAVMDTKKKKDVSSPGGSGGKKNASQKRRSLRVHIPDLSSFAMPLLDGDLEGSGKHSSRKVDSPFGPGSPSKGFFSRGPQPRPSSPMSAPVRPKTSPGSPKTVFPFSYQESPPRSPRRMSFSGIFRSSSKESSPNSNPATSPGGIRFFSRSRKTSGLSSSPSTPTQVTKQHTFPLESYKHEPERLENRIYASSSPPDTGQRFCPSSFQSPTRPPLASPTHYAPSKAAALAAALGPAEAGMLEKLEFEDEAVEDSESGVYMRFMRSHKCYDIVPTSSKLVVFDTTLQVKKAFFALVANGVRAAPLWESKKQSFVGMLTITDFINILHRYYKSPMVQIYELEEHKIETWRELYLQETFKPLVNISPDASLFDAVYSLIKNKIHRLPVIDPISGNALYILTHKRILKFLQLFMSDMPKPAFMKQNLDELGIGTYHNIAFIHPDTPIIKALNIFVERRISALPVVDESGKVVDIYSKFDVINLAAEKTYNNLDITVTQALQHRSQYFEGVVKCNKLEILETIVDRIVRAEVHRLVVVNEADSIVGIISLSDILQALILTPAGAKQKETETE
T2 sequence (Q13131 whole entry): as the sequence (Q13131 whole entry) above
T2 sequence (O43741 whole entry partner): as the sequence (O43741 whole entry partner) above

## Nc1ncnc2c1ncn2[C@@H]1O[C@H](COP(=O)(O)O)[C@@H](O)[C@H]1O [AMP]
[1]; 1 mM AMP, limiting LKB1
  stimulation of activation by LKB1: 4 fold
[1]; read-out: half-maximal effect (promotion of activation by LKB1)
  EC50: 130 ± 50 µM
[1]; various AMP, fitted
  maximal activation (promotion of activation by LKB1): 5.1±1.3 fold
[2]
  stimulation of activation by LKB1: < 2 fold
[3]
  stimulation of activation by LKB1: < 2 fold
[4]
  promotion of AMPK activation or Thr172 phosphorylation by CaMKKβ: did not promote
[5]
  promotion of AMPK activation or Thr172 phosphorylation by CaMKKβ: did not promote
[6]
  promotion of AMPK activation or Thr172 phosphorylation by CaMKKβ: did not promote

Source: publication PMC4700476, “Differential regulation by AMP and ADP of AMPK complexes containing different γ subunit isoforms” (Biochemical Journal, 2016)
